The source of these data is US9518018B2, “3-alkoxy, thioalkyl and amino-4-amino-6-(substituted)picolinates and their use as herbicides” (Dow AgroSciences LLC, priority 2011, dated 2016).

Holding throughout (assay): Post-Emergent Test I herbicidal activity
Holding throughout (type): in vivo

Assay [1] deals with ECHCG: barnyardgrass (Echinochloa crus-galli). As to conditions: post-emergence, 336 h, read-out: Visual Growth Reduction (%)-14 Days after Application ECHCG; for pest or weed control at 70 g/ha: Table 3, 70 g ai/ha; for pest or weed control at 140 g/ha: Table 3, 140 g ai/ha. As to the method: (§1) Seeds or nutlets of the desired test plant species were planted in Sun Gro Metro-Mix® 360 planting mixture, which typically has a pH of 6.0 to 6.8 and an organic matter content of about 30 percent, in plastic pots with a surface area of 64 square centimeters. When required to ensure good germination and healthy plants, a fungicide treatment and/or other chemical or physical treatment was applied. The plants were grown for 7-21 d in a greenhouse with an approximate 15 h photoperiod which was maintained at about 23-29° C. during the day and 22-28° C. during the night. Nutrients and water were added on a regular basis and supplemental lighting was provided with overhead metal halide 1000-Watt lamps as necessary. The plants were employed for testing when they reached the first or second true leaf stage.
(§2) A weighed amount, determined by the highest rate to be tested, of each test compound was placed in a 25 mL glass vial and was dissolved in 4 mL of a 97:3 v/v mixture of acetone and DMSO to obtain concentrated stock solutions. […] The concentrated stock solutions obtained were diluted with 20 mL of an aqueous mixture containing acetone, water, isopropyl alcohol, DMSO, Atplus 411F crop oil concentrate, and Triton® X-155 surfactant in a 48.5:39:10:1.5:1.0:0.02 v/v ratio to obtain spray solutions containing the highest application rates. Additional application rates were obtained by serial dilution of 12 mL of the high rate solution into a solution containing 2 mL of 97:3 v/v mixture of acetone and DMSO and 10 mL of an aqueous mixture containing acetone, water, isopropyl alcohol, DMSO, Atplus 411F crop oil concentrate, and Triton X-155 surfactant in a 48.5:39:10:1.5:1.0:0.02 v/v ratio to obtain ½×, ¼×, ⅛× and 1/16× rates of the high rate. Compound requirements are based upon a 12 mL application volume at a rate of 187 liters per hectare (L/ha). Formulated compounds were applied to the plant material with an overhead Mandel track sprayer equipped with 8002E nozzles calibrated to deliver 187 L/ha over an application area of 0.503 square meters at a spray height of 18 inches (43 cm) above the average plant canopy height. Control plants were sprayed in the same manner with the solvent blank.
(§3) The treated plants and control plants were placed in a greenhouse as described above and watered by subirrigation to prevent wash-off of the test compounds. After 14 d, the condition of the test plants as compared with that of the untreated plants was determined visually and scored on a scale of 0 to 100 percent where 0 corresponds to no injury and 100 corresponds to complete kill.
(§4) By applying the well-accepted probit analysis as described by J. Berkson in Journal of the […], 48, 565 (1953) and by D. Finney in “Probit Analysis” Cambridge University Press (1952), the above data can be used to calculate GR20, GR50 and GR80 values, which are defined as growth reduction factors that correspond to the effective dose of herbicide required to kill or control 20 percent, 50 percent or 80 percent, respectively, of a target plant.

The subject of assay [2] is EPHHL: wild poinsettia (Euphorbia heterophylla). As to conditions: post-emergence, 336 h, read-out: Visual Growth Reduction (%)-14 Days after Application EPHHL; for pest or weed control at 70 g/ha: Table 3, 70 g ai/ha; for pest or weed control at 140 g/ha: Table 3, 140 g ai/ha. Here is the method: as §1, §2, §3, §4
Assay [3] deals with ABUTH: velvetleaf (Abutilon theophrasti). The note with it: Abutilon theophrasti, post-emergence, 336 h, read-out: Visual Growth Reduction (%)-14 Days after Application ABUTH; for pest or weed control at 70 g/ha: Table 3, 70 g ai/ha; for pest or weed control at 140 g/ha: Table 3, 140 g ai/ha. Here is the method: as §1, §2, §3, §4
Assay [4] relates to CHEAL: lambsquarters (Chenopodium album). As to conditions: Chenopodium album, post-emergence, 336 h, read-out: Visual Growth Reduction (%)-14 Days after Application CHEAL; for pest or weed control at 70 g/ha: Table 3, 70 g ai/ha; for pest or weed control at 140 g/ha: Table 3, 140 g ai/ha. As to the method:
as §1, §2, §3, §4

In the next assay the test system is ZEAMX: corn (Zea mays). As to conditions: Zea mays, post-emergence, 336 h, read-out: Visual Growth Reduction (%)-14 Days after Application ZEAMX; for pest or weed control at 70 g/ha: Table 3, 70 g ai/ha; for pest or weed control at 140 g/ha: Table 3, 140 g ai/ha. Here is the method: as §1, §2, §3, §4
Assay [5] relates to ORYSA: rice (Oryza sativa). The note with it: post-emergence, 336 h, read-out: Visual Growth Reduction (%)-14 Days after Application ORYSA; for pest or weed control at 70 g/ha: Table 3, 70 g ai/ha; for pest or weed control at 140 g/ha: Table 3, 140 g ai/ha. As to the method: as §1, §2, §3, §4
Assay [6] deals with CYPES: yellow nutsedge (Cyperus esculentus). The note with it: post-emergence, 336 h, read-out: Visual Growth Reduction (%)-14 Days after Application CYPES; for pest or weed control at 70 g/ha: Table 3, 70 g ai/ha; for pest or weed control at 140 g/ha: Table 3, 140 g ai/ha. Here is the method: as §1, §2, §3, §4

With `CCOC(=O)c1nc(-c2ccc(Cl)cc2F)cc(N)c1OCC(F)F` [Compound 68], the pest or weed control at 180 g/ha in assay [1] (Table 3, 180 g ai/ha) came to 0%; in assay [2] (Table 3, 180 g ai/ha), 100%; in assay [3] (Table 3, 180 g ai/ha), 100%; in assay [4] (Table 3, 180 g ai/ha) it was 90%; in the assay on ZEAMX: corn (Zea mays) (Table 3, 180 g ai/ha), 10%; in assay [5] (Table 3, 180 g ai/ha), 0%. Moreover, the pest or weed control at 180 g/ha in assay [6] (Table 3, 180 g ai/ha) worked out at 90%.
`COC(=O)c1nc(-c2ccc(Cl)cc2F)c(F)c(N)c1OC` [Compound 69]: the pest or weed control at 70 g/ha in assay [1] is 30%; in assay [2], 100%; in assay [3], 85%; in assay [4], 0%; in the assay on ZEAMX: corn (Zea mays), 10%; in assay [5] it was 0%. Besides, the pest or weed control at 70 g/ha in assay [6] was found to be 100%.
Take `Nc1cc(-c2ccc(Cl)cc2F)nc(C(=O)O)c1OCC(F)(F)F` [Compound 70]: the pest or weed control at 280 g/ha in assay [1] (Table 3, 280 g ai/ha) is 0%; in assay [2] (Table 3, 280 g ai/ha), 100%; in assay [3] (Table 3, 280 g ai/ha), 50%; in assay [4] (Table 3, 280 g ai/ha), 25%; with ZEAMX: corn (Zea mays) (Table 3, 280 g ai/ha), 75%; in assay [5] (Table 3, 280 g ai/ha), 0%. Besides, the pest or weed control at 280 g/ha in assay [6] (Table 3, 280 g ai/ha) was found to be 85%.
Regarding `COc1c(C(=O)O)nc(-c2ccc(Cl)cc2F)c(F)c1N` [Compound 71], the pest or weed control at 70 g/ha came out at 85% in assay [1]; 100% in assay [2]; 80% in assay [3]; 90% in assay [4]; 70% with ZEAMX: corn (Zea mays); 0% in assay [5]. The pest or weed control at 70 g/ha in assay [6] is 100%.
Regarding `COC(=O)c1nc(-c2ccc(OC)nc2)c(F)c(N)c1OC` [Compound 75, methyl 4-amino-3-fluoro-5,6′-dimethoxy-[2,3′-bipyridine]-6-carboxylate], the pest or weed control at 140 g/ha in assay [1] worked out at 0%; in assay [2], 85%; in assay [3], 90%; in assay [4], 85%; in the assay on ZEAMX: corn (Zea mays) it was 85%; in assay [5] it was 0%. The pest or weed control at 140 g/ha in assay [6] was determined as 95%.
Take `COC(=O)c1nc(-c2ccc(C3CC3)nc2)c(F)c(N)c1OC` [Compound 76, methyl 4-amino-6′-cyclopropyl-3-fluoro-5-methoxy-[2,3′-bipyridine]-6-carboxylate]: the pest or weed control at 140 g/ha in assay [1] was 0%; in assay [2], 97%; in assay [3], 85%; in assay [4], 80%; with ZEAMX: corn (Zea mays) it was 50%; in assay [5], 0%. For the same molecule, the pest or weed control at 140 g/ha in assay [6] was 95%.
For `COc1c(C(=O)O)nc(-c2ccc(C3CC3)nc2)c(F)c1N` [Compound 77, 4-amino-6′-cyclopropyl-3-fluoro-5-methoxy-[2,3′-bipyridine]-6-carboxylic acid], the pest or weed control at 140 g/ha amounted to 85% in assay [1]; 95% in assay [2]; 80% in assay [3]; 75% in assay [4]; 95% in the assay with ZEAMX: corn (Zea mays); 65% in assay [5]. Further, in assay [6], the pest or weed control at 140 g/ha came out at 90%.
For `COc1ccc(-c2nc(C(=O)O)c(OC)c(N)c2F)cn1` [Compound 78, 4-amino-3-fluoro-5,6′-dimethoxy-[2,3′-bipyridine]-6-carboxylic acid], the pest or weed control at 70 g/ha in assay [1] was 85%; in assay [2], 80%; in assay [3], 80%; in assay [4], 97%; with ZEAMX: corn (Zea mays) it was 80%; in assay [5], 50%. Further, the pest or weed control at 70 g/ha in assay [6] worked out at 80%.
Consider `COc1c(C(=O)O)nc(-c2ccc(Cl)c(Cl)c2)c(F)c1N` [Compound 79], for which the pest or weed control at 70 g/ha in assay [1] is 70%; in assay [2], 95%; in assay [3], 80%; in assay [4] it was 100%; in the assay with ZEAMX: corn (Zea mays) it was 80%; in assay [5], 15%. Also, the pest or weed control at 70 g/ha in assay [6] worked out at 90%.
Regarding `COC(=O)c1nc(C(C)(F)F)cc(N)c1OC` [Compound 81, methyl 4-amino-6-(1,1-difluoroethyl)-3-methoxypicolinate], the pest or weed control at 140 g/ha in assay [1] was found to be 0%; in assay [2], 60%; in assay [3], 10%; in assay [4], 80%; in the assay on ZEAMX: corn (Zea mays), 0%; in assay [5], 0%. For the same molecule, the pest or weed control at 140 g/ha in assay [6] was 0%.
